# Read-outs that look alike come from different tables or passages of the source.
# Experiments:
# FIPV 3CL^pro = conditions: cited from earlier work
# CRFK cells [1] = conditions: cat, 24 h
# Coxsackievirus B3 [2] = tested on: Coxsackievirus B3; set-up: method as in PMID 24963331; conditions: in vitro; cited from earlier work
# [3] = tested on: Herpes simplex virus type 1; conditions: in vitro; cited from earlier work
# Coxsackievirus B3 [4] = tested on: Coxsackievirus B3; set-up: method as in PMID 24963331; conditions: cited from earlier work
# in vitro = conditions: cat
# FIPV [5] = assay: Post-viral entry assay, FIPV-infected cells by IPMA; conditions: for selectivity ratio at 24 h: cat
# Influenza A virus = conditions: in vitro; cited from earlier work
# SARS-CoV-2 = conditions: in vitro, cited from earlier work
# Marek’s disease virus = tested on: Marek’s disease virus; set-up: method as in PMID 33008383; conditions: at 20 µg/mL; cited from earlier work
# [6] = tested on: African swine fever virus; conditions: in vitro, at 10 µg/mL; cited from earlier work
# Zika virus = tested on: Zika virus; set-up: method as in PMID 27344138; conditions: in vitro; cited from earlier work
# Hepatitis B virus = conditions: in vitro; cited from earlier work
# SARS-CoV-2 3CL^pro = tested on: SARS-CoV-2 3CL^pro; set-up: method as in PMID 32963564; conditions: in vitro; cited from earlier work
# CRFK cells [7] = assay: Cell cytotoxicity and cell viability (MTS assay); conditions: 24 h
# FIPV [8] = assay: Pre-compound assay; format: cell-based, feline infectious peritonitis virus; conditions: cells pretreated 2 h, then FIPV 2 h, 24-HPI, crystal violet and IPMA
# FIPV [9] = assay: Attachment assay; format: cell-based, feline infectious peritonitis virus; conditions: co-adsorbed at 4°C for 1 h, 24-HPI
# Method: (§1) Crandell–Rees feline kidney cells were seeded into a 96-well plate at 1.8 × 10^4 cells/well and cultured in MEM containing 7% FBS. Pre-compound, attachment, penetration, post-viral entry, and virucidal assays were performed based on each step of viral infection. […] For the antiviral activity assay, FIPV was used at 50 TCID50/well in all experiments. Crandell–Rees feline kidney cells were inoculated with FIPV and treated with 0.1% DMSO as vehicle control. GC376 (TargetMol®, Wellesley Hills, MA, USA) was used as the FIPV-specific drug control. Three experiments were performed in duplicate wells for each compound.
# To determine whether the compounds could interfere with virus binding to the host cells, CRFK cells in a 96-well plate were prechilled at 4°C for 1 h, and cotreated with the FIPV inoculum and the diluted compounds or controls at 4°C for 1 h to allow virus binding, but not entry to the host cells.
# For initial screening, FIPV infection was determined using crystal violet staining for all antiviral assays. Briefly, the supernatants were removed from the compound-treated and FIPV-infected CRFK and control cells, and the cells were fixed with cold methanol at room temperature (25°C) for 30 min. […] Five to ten images of positive FIPV-infected cells were recorded at a magnification of 100× using a phase-contrast inverted microscope (Olympus IX73). […]
# FIPV [10] = assay: Penetration assay; format: cell-based, feline infectious peritonitis virus; conditions: FIPV bound at 4°C 1 h, compound added at 37°C, 24 h
# Enterovirus A71 = tested on: Enterovirus A71; set-up: method as in PMID 19537794; conditions: in vitro, at 10 µM; cited from earlier work
# [11] = tested on: Human immunodeficiency virus reverse transcriptase; set-up: method as in PMID 21730371; conditions: in vitro; cited from earlier work
# FIPV [12] = assay: Post-viral entry assay, viral load by RT-qPCR; format: cell-based, feline infectious peritonitis virus; conditions: Alphacoronavirus 1, read-out: inhibition of viral copy numbers
# Method: as §1
# To determine whether the compounds could inhibit viral replication and translation in the host cells after infection, CRFK cells were inoculated with FIPV at 37°C for 2 h for viral adsorption.
# Intracellular and extracellular FIPV from infected CRFK cells was determined using RT-qPCR, as described. […] A standard curve of viral copy numbers was generated from the plasmid containing the FIPV 3′UTR sequence by 10-fold serially diluting the plasmid from […] plasmid molecules/μL and using it for viral load quantification. Quantitative polymerase chain reaction was performed from two biological replicates and three independent experiments were performed.
# FIPV [13] = assay: Cotreatment (virucidal) assay, IPMA; format: cell-based, feline infectious peritonitis virus; conditions: Alphacoronavirus 1, FIPV and compound coincubated with cells at 37°C for 2 h, 24 h
# FIPV [14] = assay: Virucidal effect at different time points, TCID50 titration; format: cell-based, feline infectious peritonitis virus; conditions: 75 μM, direct incubation with FIPV at 37°C, compared with untreated control
# Method: Feline infectious peritonitis virus inoculum at 50 TCID50/mL was directly incubated at the maximum concentrations of the compounds that were non-cytotoxic at 37°C in a 1.5 mL microcentrifuge tube for 0, 15, 30, 60, and 120 min. After the indicated incubation, the mixtures of virus and compounds were immediately subjected to viral titration according to Reed and Muench’s method. Viral titers in compound-treated wells were compared with the untreated control.
# FIPV [15] = assay: Time-of-addition (ToA) assay, RT-qPCR; format: cell-based, feline infectious peritonitis virus
# [16] = tested on: Foot-and-mouth disease virus; conditions: in vitro, post-viral entry; cited from earlier work
# FMDV 3C^pro = conditions: cited from earlier work
# [17] = tested on: Foot-and-mouth disease virus; conditions: virus and compound cotreated before incubating with cells; read-out: EC50 (virucidal, cotreatment); cited from earlier work
# SARS-CoV-2 RdRp = conditions: in vitro; cited from earlier work
# [18] = tested on: SARS-CoV 3a channel protein; conditions: in vitro; cited from earlier work
# [19] = post-viral entry, FIPV 50 TCID50/well in CRFK cells, 24-HPI, IPMA
compound,measurement,setting,value
COc1cc(O)c2c(=O)cc(-c3ccc(O)c(O)c3)oc2c1 [7-methylluteolin],IC50,FIPV 3CL^pro,28.5 ± 4.2 µM
O=c1cc(-c2ccc(O)c(-c3c(O)cc(O)c4c(=O)cc(-c5ccc(O)cc5)oc34)c2)oc2cc(O)cc(O)c12 [Amentoflavone],CC10,CRFK cells [1],155.50 ± 2.19 µM
same,EC50,Coxsackievirus B3 [2],25 µM
same,EC50,[3],11.1 to 28.2 µM
same,IC50 (virucidal),Coxsackievirus B3 [4],19 to 41 µg/mL
same,CC50 at 24 h,in vitro; CC50,197 ± 2.29 µM
same,EC50,"FIPV [5]; Alphacoronavirus 1, CRFK",144.1 ± 0.01 µM
same,EC90,"FIPV [5]; Alphacoronavirus 1, CRFK",242.9 ± 2.4 µM
same,selectivity ratio at 24 h,FIPV [5],1.37
O=c1cc(-c2ccc(O)cc2)oc2cc(O)cc(O)c12 [Apigenin],EC50,Influenza A virus,5 to 20 µM
same,CC50 at 24 h,in vitro; CC50,22.2 µM
O=C(O)[C@H]1O[C@@H](Oc2cc3oc(-c4ccccc4)cc(=O)c3c(O)c2O)[C@H](O)[C@@H](O)[C@@H]1O [Baicalin],EC50,SARS-CoV-2,8 to 9 µM
same,virucidal effect,Marek’s disease virus,Virucidal effect
same,CC50 at 24 h,in vitro; CC50,> 200 µM
COc1ccc(-c2cc(=O)c3c(O)cc(O[C@@H]4O[C@H](CO[C@@H]5O[C@@H](C)[C@H](O)[C@@H](O)[C@H]5O)[C@@H](O)[C@H](O)[C@H]4O)cc3o2)cc1O [Diosmin],inhibition,[6],African swine fever virus (in vitro: 40% inhibition at 10 µg/mL)
same,CC50 at 24 h,in vitro; CC50,> 200 µM
O=C(O[C@@H]1Cc2c(O)cc(O)cc2O[C@@H]1c1cc(O)c(O)c(O)c1)c1cc(O)c(O)c(O)c1 [Epigallocatechin gallate],EC50,Zika virus,21.4 µM
same,EC50,Hepatitis B virus,< 10 µM
same,IC50,SARS-CoV-2 3CL^pro,7.58 µg/mL
same,CC10,CRFK cells [7],84.98 ± 1.93 µM
same,CC50,CRFK cells [7],282.2 ± 0.12 µM
same,Selective index CC50/EC50,"FIPV [5]; post-viral entry, CRFK cells",3.57
same,EC50,FIPV [5]; [19],79.07 ± 0.01 µM
same,EC90,FIPV [5]; [19],196.5 ± 1.96 µM
CC(C)C[C@H](NC(=O)OCc1ccccc1)C(=O)N[C@@H](C[C@@H]1CCNC1=O)C(O)S(=O)(=O)[O-].[Na+] (some centres unmarked) [GC376],cell protection (prophylactic) effect,FIPV [8],did not possess the prophylactic and virus attachment effects
same,effect on FIPV binding (attachment),FIPV [9],did not possess the prophylactic and virus attachment effects
same,effect on FIPV penetration,FIPV [10],inhibited FIPV replication at high concentrations of up to 50 μM
O=C(O[C@@H]1Cc2c(O)cc(O)cc2O[C@H]1c1cc(O)c(O)c(O)c1)c1cc(O)c(O)c(O)c1 [Gallocatechin Gallate],virus reduction,Enterovirus A71,56%
same,EC50,[11],3.5 µM
same,CC50 at 24 h,in vitro,> 200 µM
COc1ccc([C@@H]2CC(=O)c3c(O)cc(O[C@@H]4O[C@H](CO[C@@H]5O[C@@H](C)[C@H](O)[C@@H](O)[C@H]5O)[C@@H](O)[C@H](O)[C@H]4O)cc3O2)cc1O [Hesperidin],viral titer reduction,Influenza A virus,Influenza A virus (in vitro: viral titer reduction at 3 log10 TCID50/0.1 mL)
COc1ccc(-c2cc(=O)c3c(O)cc(O)c(-c4cc(-c5cc(=O)c6c(O)cc(O)cc6o5)ccc4OC)c3o2)cc1 [Isoginkgetin],inhibition at 10 µM,FIPV [12],> 90%
same,EC50,FIPV [13],40.6 ± 1.5 µM
same,decrease of viral titer,FIPV [14]; 60 min,2 log10 TCID50/mL
same,decrease of viral titer,FIPV [14]; 120 min,1.89 log10 TCID50/mL
same,time of addition of maximal efficiency,"FIPV [15]; 28.82 μM, harvested at 10-HPI, RT-qPCR",2–4 HPI
same,effect on FIPV,"FIPV [15]; added at 0-HPI, 28.82 μM, RT-qPCR at 10-HPI",major inhibitory effect
same,time of addition at which FIPV replication is inhibited,"FIPV [15]; compound at EC90, harvested at 10-HPI, RT-qPCR",0–6 HPI
same,EC50,SARS-CoV-2; infected Vero cells,22.8 µM
same,EC50,[16],1.93 ± 0.21 µM
same,IC50,FMDV 3C^pro,39 µM
same,EC50,[17],2.01 ± 0.07 µM
same,CC50 at 24 h,in vitro,199.4 ± 0.33 µM
same,"viability at 24 h, 75 µM",in vitro,≥ 90%
same,CC10,CRFK cells [7],77.43 ± 2.52 µM
same,EC50,"FIPV [5]; Alphacoronavirus 1, CRFK",4.77 ± 0.09 µM
same,EC90,"FIPV [5]; Alphacoronavirus 1, CRFK",28.8 ± 1.46 µM
same,selectivity ratio at 24 h,"FIPV [5]; Selective index CC50/EC50, post-viral entry, CRFK cells",41.8
O=c1c(-c2ccc(O)cc2)coc2c([C@@H]3O[C@H](CO)[C@@H](O)[C@H](O)[C@H]3O)c(O)ccc12 [Puerarin],EC50,Influenza A virus,52.1 µM
same,CC50 at 24 h,in vitro; CC50,195 µM
O=c1c(O)c(-c2ccc(O)c(O)c2)oc2cc(O)cc(O)c12 [Quercetin],IC50,SARS-CoV-2 RdRp,6.9 µM
same,CC50 at 24 h,in vitro,> 200 µM
C[C@@H]1O[C@@H](OC[C@H]2O[C@@H](Oc3c(-c4ccc(O)c(O)c4)oc4cc(O)cc(O)c4c3=O)[C@H](O)[C@@H](O)[C@@H]2O)[C@H](O)[C@H](O)[C@H]1O [Rutin],CC50 at 24 h,in vitro; CC50,> 200 µM
O=C(/C=C/c1ccc(O)cc1)OC[C@H]1O[C@@H](Oc2c(-c3ccc(O)cc3)oc3cc(O)cc(O)c3c2=O)[C@H](O)[C@@H](O)[C@@H]1O [Tiliroside],IC50,[18],20 µM
same,CC50 at 24 h,in vitro,65.2 µM
Epicatechin-3-O-gallate,EC50,[3],4 µM
